Test system: fulvestrant-resistant MCF7:5C-FR cells
Assay: Fulvestrant-resistant breast cancer cell viability (cell proliferation) assay
Format: cell-based
Details: 120 h, growth inhibition in fulvestrant-resistant MCF-7:CFR cells, 120 hrs
Summary of the method: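 Cells were treated the day after seeding with compounds at 3 nM to 10 uM for 120 h, with 0.1% DMSO vehicle and 1 uM JQ1 as positive control. Hoechst 33342-stained (5 μg/ml, 90 min, 37 C) nuclei were imaged and counted, and cell numbers normalized to vehicle.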

Row | SMILES | IC50 [nM]
1 | CCS(=O)(=O)Nc1cc(-c2cn(CCCl)c3c(O)nccc23)cc2c1ccn2Cc1ccc(F)cc1F [Compound 85, N-(6-(1-(2-chloroethyl)-7-hydroxy-1H-pyrrolo[2,3-c]pyridin-3-yl)-1-(2,4-difluorobenzyl)-1H-indol-4-yl)ethanesulfonamide] | < 1000
2 | CCS(=O)(=O)Nc1cc(-c2cn(CCCl)c3c(O)nccc23)cc2c1ccn2Cc1ccc(C#N)cc1 [Compound 86, N-(6-(1-(2-chloroethyl)-7-hydroxy-1H-pyrrolo[2,3-c]pyridin-3-yl)-1-(4-cyanobenzyl)-1H-indol-4-yl)ethanesulfonamide] | < 1000
3 | CCS(=O)(=O)Nc1cc(-c2cn(CCCl)c3c(O)nccc23)cc2c1ccn2Cc1ccc(Cl)c(Cl)c1 [Compound 87, N-(6-(1-(2-chloroethyl)-7-hydroxy-1H-pyrrolo[2,3-c]pyridin-3-yl)-1-(3,4-dichlorobenzyl)-1H-indol-4-yl)ethanesulfonamide] | < 1000
4 | C=CC(=O)Cn1cc(-c2cc(NS(C)(=O)=O)c3ccn(Cc4ccc(F)cc4)c3c2)c2ccnc(O)c21 [Compound 88, N-(1-(4-fluorobenzyl)-6-(7-hydroxy-1-(2-oxobut-3-en-1-yl)-1H-pyrrolo[2,3-c]pyridin-3-yl)-1H-indol-4-yl)methanesulfonamide] | < 1000
5 | CS(=O)(=O)Nc1cc(-c2cn(CC3CO3)c3c(O)nccc23)cc2c1ccn2Cc1ccc(F)cc1 (stereo not drawn) [Compound 89, N-(1-(4-fluorobenzyl)-6-(7-hydroxy-1-(oxiran-2-ylmethyl)-1H-pyrrolo[2,3-c]pyridin-3-yl)-1H-indol-4-yl)methanesulfonamide] | < 1000
6 | CS(=O)(=O)Nc1cc(-c2cn(CC(=O)CCl)c3c(O)nccc23)cc2c1ccn2Cc1ccc(F)cc1 [Compound 90, N-(6-(1-(3-chloro-2-oxopropyl)-7-hydroxy-1H-pyrrolo[2,3-c]pyridin-3-yl)-1-(4-fluorobenzyl)-1H-indol-4-yl)methanesulfonamide] | < 1000
7 | CCS(=O)(=O)Nc1cc(-c2cn(C)c3c(O)nccc23)cc2c1ccn2[C@H](c1ccccc1)C1CCOCC1 [Compound 91, (S)-N-(6-(7-hydroxy-1-methyl-1H-pyrrolo[2,3-c]pyridin-3-yl)-1-(phenyl(tetrahydro-2H-pyran-4-yl)methyl)-1H-indol-4-yl)ethanesulfonamide] | < 1000
8 | CCS(=O)(=O)Nc1cc(-c2cn(C)c3c(O)nccc23)cc2c1ccn2[C@@H](c1ccccc1)C1CCOCC1 [Compound 92, (R)-N-(6-(7-hydroxy-1-methyl-1H-pyrrolo[2,3-c]pyridin-3-yl)-1-(phenyl(tetrahydro-2H-pyran-4-yl)methyl)-1H-indol-4-yl)ethanesulfonamide] | < 1000
9 | CCS(=O)(=O)Nc1cc(-c2cn(CCCl)c3c(O)nccc23)cc2c1ccn2Cc1ccccc1 [Compound 95, N-(1-benzyl-6-(1-(2-chloroethyl)-7-hydroxy-1H-pyrrolo[2,3-c]pyridin-3-yl)-1H-indol-4-yl)ethanesulfonamide] | > 100
10 | C=CC(=O)Cn1cc(-c2cc(NS(C)(=O)=O)c3ccn(Cc4ccccc4)c3c2)c2ccnc(O)c21 [Compound 97, N-(1-benzyl-6-(7-hydroxy-1-(2-oxobut-3-en-1-yl)-1H-pyrrolo[2,3-c]pyridin-3-yl)-1H-indol-4-yl)methanesulfonamide] | > 100
11 | CS(=O)(=O)Nc1cc(-c2cn(CC3CO3)c3c(O)nccc23)cc2c1ccn2Cc1ccccc1 (stereo not drawn) [Compound 98, N-(1-benzyl-6-(7-hydroxy-1-(oxiran-2-ylmethyl)-1H-pyrrolo[2,3-c]pyridin-3-yl)-1H-indol-4-yl)methanesulfonamide] | < 1000
12 | CS(=O)(=O)Nc1cc(-c2cn(CC(=O)CCl)c3c(O)nccc23)cc2c1ccn2Cc1ccccc1 [Compound 99, N-(1-benzyl-6-(1-(3-chloro-2-oxopropyl)-7-hydroxy-1H-pyrrolo[2,3-c]pyridin-3-yl)-1H-indol-4-yl)methanesulfonamide] | < 1000
13 | Cn1cc(-c2cc(NS(C)(=O)=O)c3ccn(Cc4cccc(F)c4)c3c2)c2cc[nH]c(=O)c21 [Compound 100, N-(1-(3-fluorobenzyl)-6-(1-methyl-7-oxo-6,7-dihydro-1H-pyrrolo[2,3-c]pyridin-3-yl)-1H-indol-4-yl)methanesulfonamide] | < 1000
14 | Cc1cc(F)cc(C)c1Cn1ccc2c(NS(C)(=O)=O)cc(-c3cn(C)c4c(=O)[nH]ccc34)cc21 [Compound 101, N-(1-(4-fluoro-2,6-dimethylbenzyl)-6-(1-methyl-7-oxo-6,7-dihydro-1H-pyrrolo[2,3-c]pyridin-3-yl)-1H-indol-4-yl)methanesulfonamide] | < 1000
15 | CCS(=O)(=O)Nc1cc(-c2cn(C)c3c(=O)[nH]ccc23)cc2c1ccn2C(C)(c1nccs1)c1nccs1 [Compound 102, N-(1-(1,1-di(thiazol-2-yl)ethyl)-6-(1-methyl-7-oxo-6,7-dihydro-1H-pyrrolo[2,3-c]pyridin-3-yl)-1H-indol-4-yl)ethanesulfonamide] | < 1000
16 | CC(=O)Nc1cc(-c2cn(C)c3c(=O)[nH]ccc23)cc2c1ccn2Cc1cccc(F)c1 [Compound 103, N-(1-(3-fluorobenzyl)-6-(1-methyl-7-oxo-6,7-dihydro-1H-pyrrolo[2,3-c]pyridin-3-yl)-1H-indol-4-yl)acetamide] | < 1000
17 | CCC(=O)Nc1cc(-c2cn(C)c3c(=O)[nH]ccc23)cc2c1ccn2C(C)(c1cnccn1)c1cnccn1 [Compound 104, N-(1-(1,1-di(pyrazin-2-yl)ethyl)-6-(1-methyl-7-oxo-6,7-dihydro-1H-pyrrolo[2,3-c]pyridin-3-yl)-1H-indol-4-yl)propionamide] | < 1000
18 | Cn1cc(-c2cc(C(C)(C)O)c3ccn(CC4(C)COC4)c3c2)c2cc[nH]c(=O)c21 [Compound 105, 3-(4-(2-hydroxypropan-2-yl)-1-((3-methyloxetan-3-yl)methyl)-1H-indol-6-yl)-1-methyl-1,6-dihydro-7H-pyrrolo[2,3-c]pyridin-7-one] | < 1000
19 | Cn1cc(-c2cc(C(C)(C)O)c3ccn(CC4CC(F)(F)C4)c3c2)c2cc[nH]c(=O)c21 [Compound 106, 3-(1-((3,3-difluorocyclobutyl)methyl)-4-(2-hydroxypropan-2-yl)-1H-indol-6-yl)-1-methyl-1,6-dihydro-7H-pyrrolo[2,3-c]pyridin-7-one] | < 1000
20 | Cn1cc(-c2cc(C(C)(C)O)c3ccn(Cc4cccc(F)c4)c3c2)c2cc[nH]c(=O)c21 [Compound 107, 3-(1-(3-fluorobenzyl)-4-(2-hydroxypropan-2-yl)-1H-indol-6-yl)-1-methyl-1,6-dihydro-7H-pyrrolo[2,3-c]pyridin-7-one] | < 1000
21 | Cc1cc(F)cc(C)c1Cn1ccc2c(C(C)(C)O)cc(-c3cn(C)c4c(=O)[nH]ccc34)cc21 [Compound 108, 3-(1-(4-fluoro-2,6-dimethylbenzyl)-4-(2-hydroxypropan-2-yl)-1H-indol-6-yl)-1-methyl-1,6-dihydro-7H-pyrrolo[2,3-c]pyridin-7-one] | < 1000
22 | Cn1cc(-c2cc(C(C)(C)O)c3ccn(C(C)(c4cnccn4)c4cnccn4)c3c2)c2cc[nH]c(=O)c21 [Compound 109, 3-(1-(1,1-di(pyrazin-2-yl)ethyl)-4-(2-hydroxypropan-2-yl)-1H-indol-6-yl)-1-methyl-1,6-dihydro-7H-pyrrolo[2,3-c]pyridin-7-one] | < 1000
23 | Cn1ccnc1C(C)(c1nccn1C)n1ccc2c(C(C)(C)O)cc(-c3cn(C)c4c(=O)[nH]ccc34)cc21 [Compound 110, 3-(1-(1,1-bis(1-methyl-1H-imidazol-2-yl)ethyl)-4-(2-hydroxypropan-2-yl)-1H-indol-6-yl)-1-methyl-1,6-dihydro-7H-pyrrolo[2,3-c]pyridin-7-one] | < 1000
24 | Cn1cc(-c2cc(C(C)(C)O)c3ccn(C(C)(c4nccs4)c4nccs4)c3c2)c2cc[nH]c(=O)c21 [Compound 111, 3-(1-(1,1-di(thiazol-2-yl)ethyl)-4-(2-hydroxypropan-2-yl)-1H-indol-6-yl)-1-methyl-1,6-dihydro-7H-pyrrolo[2,3-c]pyridin-7-one] | < 1000
25 | Cc1cccc(C)c1Cn1ccc2c(C(C)(C)O)cc(-c3cn(C)c4c(=O)[nH]ccc34)cc21 [Compound 113, 3-(1-(2,6-dimethylbenzyl)-4-(2-hydroxypropan-2-yl)-1H-indol-6-yl)-1-methyl-1,6-dihydro-7H-pyrrolo[2,3-c]pyridin-7-one] | < 1000
26 | Cc1cccc(Cl)c1Cn1ccc2c(C(C)(C)O)cc(-c3cn(C)c4c(=O)[nH]ccc34)cc21 [Compound 114, 3-(1-(2-chloro-6-methylbenzyl)-4-(2-hydroxypropan-2-yl)-1H-indol-6-yl)-1-methyl-1,6-dihydro-7H-pyrrolo[2,3-c]pyridin-7-one] | < 1000
27 | CCS(=O)(=O)c1cccc2c1nc(-c1cn(C)c3c(O)nccc13)n2[C@H](c1ccccc1)C1CCOCC1 [Compound 115, (S)-3-(4-(ethylsulfonyl)-1-(phenyl(tetrahydro-2H-pyran-4-yl)methyl)-1H-benzo[d]imidazol-2-yl)-1-methyl-1H-pyrrolo[2,3-c]pyridin-7-ol] | < 1000
28 | Cn1cc(-c2cc3c(C(C)(C)O)cccc3n2[C@@H](c2ccccc2)C2CCOCC2)c2ccnc(O)c21 [Compound 116, (R)-3-(4-(2-hydroxypropan-2-yl)-1-(phenyl(tetrahydro-2H-pyran-4-yl)methyl)-1H-indol-2-yl)-1-methyl-1H-pyrrolo[2,3-c]pyridin-7-ol] | < 1000

Same assay, conditions: growth inhibition in fulvestrant-resistant MCF-7:CFR cells, 120 hrs

Row | SMILES | IC50 [nM]
29 | CCS(=O)(=O)Nc1cc(-c2cn(CCCl)c3c(O)nccc23)cc2c1ccn2Cc1c(C)cccc1C [Compound 84, N-(6-(1-(2-chloroethyl)-7-hydroxy-1H-pyrrolo[2,3-c]pyridin-3-yl)-1-(2,6-dimethylbenzyl)-1H-indol-4-yl)ethanesulfonamide] | < 1000
30 | CCS(=O)(=O)Nc1cc(-c2cn(CCCl)c3c(O)nccc23)cc2c1ccn2Cc1c(C)cccc1C [Compound 96, N-(6-(1-(2-chloroethyl)-7-hydroxy-1H-pyrrolo[2,3-c]pyridin-3-yl)-1-(2,6-dimethylbenzyl)-1H-indol-4-yl)ethanesulfonamide] | > 100
